Here are results for 5 compounds from patent US20090047243A1, “COMBINATIONS FOR THE TREATMENT OF B-CELL PROLIFERATIVE DISORDERS” (priority 2007, published 2009).

Assay [1] deals with human multiple myeloma cells (MM.1R). The experiment in a line: Anti-proliferation assay (ATPLite, 72 h). Format: cell-based. Further details: key: S = lnfX·lnfY·ΣIdata(Idata−ILoewe), volume over Loewe additivity. As for the experimental part:
ANBL6 and INA-6 culture media was also supplemented with 10 ng/ml IL-6. […] MM.1S, MM.1R, OCI-ly10, Karpas 422, and SU-DHL6 cells were provided by the Dana Farber Cancer Institute. H929, RPMI-8226, GA-10, and Farage cells were from ATCC (Cat #'s CCL-155, CRL-9068, CRL-2392 and CRL-2630 respectively). MOLP-8, EJM, KSM-12-PE, and OPM2 were from DSMZ. The ANBL6 and INA-6 cell lines were provided by the M. D. Anderson Cancer Research Center. Compounds were prepared in DMSO at 1000× the highest desired concentration. Master plates were generated consisting of serially diluted compounds in 2- or 3-fold dilutions in 384-well format. For single agent dose response curves, the master plates consisted of 9 individual compounds at 12 concentrations in 2- or 3-fold dilutions. For combination matrices, master plates consisted of individual compounds at 6 or 9 concentrations at 2- or 3-fold dilutions. […] To obtain combination data, two master plates were diluted into the assay plates. […] Thirty microliters of ATPLite (Perkin Elmer) at room temperature was then added to each well. […] Measurements were taken at the top of the well using a luminescence aperture and a read time of 0.1 seconds per well. The percent inhibition (% I) for each well was calculated using the following formula: % I=[(avg. untreated wells-treated well)/(avg. untreated wells)]×100. […] Negative inhibition values result from local variations in treated wells as compared to untreated wells. […] The uncertainty of each fitted parameter was estimated from the range over which the change in reduced chi-squared was less than one, or less than minimum reduced chi-squared if that minimum exceeded one, to allow for underestimated σI errors. Single agent curve data were used to define a dilution series for each compound to be used for combination screening in a 6×6 matrix format. […] The Loewe additivity model was used to quantify combination effects. […] A “Synergy Score” was also used, where the Synergy Score S=log fX log fY ΣIdata(Idata-ILoewe), summed over all non-single-agent concentration pairs, and where log fX,Y is the natural logarithm of the dilution factors used for each single agent. This effectively calculates a volume between the measured and Loewe additive response surfaces, weighted towards high inhibition and corrected for varying dilution factors. An uncertainty σS was calculated for each synergy score, based on the measured errors for the Idata values and standard error propagation.
On the technique in general: ATP-based viability assays read luminescence as a measure of living cells.

Assay [2] concerns H929 multiple myeloma cell line. The experiment in a line: Anti-proliferation assay (ATPLite, 72 h). Format: cell-based, human. Further details: key: S = lnfX·lnfY·ΣIdata(Idata−ILoewe), volume over Loewe additivity. Particulars: for synergy (score), PDEi × HE-NECA: 6×6 cross of PDE inhibitor or PDE inhibitor mixture with HE-NECA. Put shortly: (§1)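 Percent inhibition, calculated against averaged untreated wells, derives from ATPLite luminescence. Dose-response curves spanned 12 concentrations in 2- or 3-fold steps. IL-6 at 10 ng/ml was added to the ANBL6 culture medium.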

The subject of assay [3] is RPMI-8226 multiple myeloma cell line. Nature of the assay: Anti-proliferation assay (ATPLite, 72 h). Format: cell-based, human. Further details: key: S = lnfX·lnfY·ΣIdata(Idata−ILoewe), volume over Loewe additivity. Put shortly: as §1
Assay [4] relates to human multiple myeloma cells (MM.1S). The experiment in a line: Anti-proliferation assay (ATPLite, 72 h). Format: cell-based. Particulars: for synergy (score), PDEi × HE-NECA: 6×6 cross of PDE inhibitor or PDE inhibitor mixture with HE-NECA. Further details: key to synergy score / synergy (score), PDEi × HE-NECA: S = lnfX·lnfY·ΣIdata(Idata−ILoewe), volume over Loewe additivity. Put shortly: as §1

For assay [5], the system named is phosphodiesterase (PDE) types. To be noted: PDE type(s) in brackets after the name; cited from earlier work.
Where [6] appears, read: in combination with adenosine receptor agonist CGS-21680, MM.1R.
Where [7] appears, read: in combination with adenosine receptor agonist regadenoson, MM.1R.
Setting [8] is: PDE inhibitor crossed with (S) ENBA, H929.
Setting [9] is: PDE inhibitor crossed with Chloro-IB-MECA, H929.
Where [10] appears, read: PDE inhibitor crossed with HE-NECA, H929.
[11] abbreviates: in combination with adenosine receptor agonist CGS-21680, H929.
Where [12] appears, read: in combination with adenosine receptor agonist HE-NECA, H929.
[13] abbreviates: in combination with adenosine receptor agonist regadenoson, H929.
Setting [14] is: in combination with adenosine receptor agonist CGS-21680, RPMI 8226.
Where [15] appears, read: in combination with adenosine receptor agonist HE-NECA, RPMI-8226.
Setting [16] is: in combination with adenosine receptor agonist regadenoson, RPMI 8226.
Where [17] appears, read: PDE inhibitor crossed with (S) ENBA, MM.1S.
Where [18] appears, read: PDE inhibitor crossed with Chloro-IB-MECA, MM.1S.
[19] abbreviates: PDE inhibitor crossed with HE-NECA, MM.1S.
Where [20] appears, read: in combination with adenosine receptor agonist CGS-21680, MM.1S.
The mark [21] stands for this setting: in combination with adenosine receptor agonist HE-NECA, MM.1S.
[22] abbreviates: in combination with adenosine receptor agonist regadenoson, MM.1S.
Setting [23] is: PDE inhibitor crossed with ADAC, H929.
The mark [24] stands for this setting: PDE inhibitor crossed with ADAC, MM.1S.

SMILES strings stand for the structures.

Turning to `Cc1ccc([N+](=O)[O-])cc1S(=O)(=O)N(C)C` [BRL-50481, 3-(N,N-dimethylsulfonamido)-4-methyl-nitrobenzene], the synergy score in assay [1] (setting [6]) was found to be 1.22; in assay [1] (setting [7]), 1.09; in assay [2] (setting [8]), 0.26; in assay [2] (setting [9]), 0.34; in assay [2] (setting [10]), 0.23; in assay [2] (setting [11]) it was 0.34. Further, the synergy score came out at 0.193 in assay [2] (setting [12]); 0.19 in assay [2] (setting [13]); 0.19 in assay [3] (setting [14]); 0.147 in assay [3] (setting [15]); 0.39 in assay [3] (setting [16]); 1.22 in assay [4] (setting [17]). Further, the synergy score came out at 1.47 in assay [4] (setting [18]); 1.41 in assay [4] (setting [19]); 1.78 in assay [4] (setting [20]); 1.38 in assay [4] (setting [21]); 0.82 in assay [4] (setting [22]). For the same compound, in assay [5], the “PDE inhibitors (specificity)” value is reported as “BRL-50481(7)”.
As for `COc1ccc(C2CNC(=O)C2)cc1OC1CCCC1` (stereo not drawn) [Rolipram, 4-(3-cyclopentyloxy-4-methoxyphenyl)-2-pyrrolidone], the synergy score was 4.105 in assay [1] (in combination with adenosine receptor agonist ADAC, MM.1R); 0.46 in assay [2] (setting [8]); 1.11 in assay [2] (setting [23]); 0.74 in assay [2] (setting [9]); 1.09 in assay [2] (setting [10]); 1.114 in assay [2] (in combination with adenosine receptor agonist ADAC, H929). Also, the synergy score in assay [2] (setting [12]) is reported as 1.089; in assay [3] (in combination with adenosine receptor agonist ADAC, RPMI-8226) it was 0.4277; in assay [3] (setting [15]) it was 0.2845; in assay [4] (setting [17]) it was 0.73; in assay [4] (setting [24]), 1.15; in assay [4] (setting [18]), 1.11. Moreover, the synergy score in assay [4] (setting [19]) amounted to 1.08; in assay [4] (in combination with adenosine receptor agonist ADAC, MM.1S), 1.147; in assay [4] (setting [21]) it was 1.076. Moreover, the “PDE inhibitors (specificity)” value in assay [5] is recorded as “Rolipram (4)”.
For orientation: inhibition means the change of the read-out against control, counted positive when it falls. As for `COc1ccc(Cc2nn3c([C@@H](CCCc4ccccc4)[C@@H](C)O)nc(C)c3c(=O)[nH]2)cc1OC` [BAY 60-7550, 2-(3,4-dimethoxybenzyl)-7-[(1R)-1-[(1R)-1-hydroxyethyl]-4-phenylbutyl]-5-methylimidazo[5,1-f][1,2,4]triazin-4(3H)-one], the synergy score is given as 4.59 in assay [1] (setting [6]); 3.07 in assay [1] (setting [7]); 1.07 in assay [2] (setting [8]); 0.55 in assay [2] (setting [23]); 0.74 in assay [2] (setting [9]); 3.71 in assay [2] (setting [10]). Besides, the synergy score is on record as 3.86 in assay [2] (setting [11]); 1.933 in assay [2] (setting [12]); 1.89 in assay [2] (setting [13]); 0.76 in assay [3] (setting [14]); 0.7784 in assay [3] (setting [15]); 0.98 in assay [3] (setting [16]). For the same compound, the synergy score in assay [4] (setting [17]) is listed as 2.84; in assay [4] (setting [24]), 0.85; in assay [4] (setting [18]), 0.86; in assay [4] (setting [19]), 3.8; in assay [4] (setting [20]) it was 3.85; in assay [4] (setting [21]) it was 2.364. Also, the synergy score in assay [4] (setting [22]) was 0.91. For the same compound, the figures for the “synergy (score), PDEi × HE-NECA” value in assay [2] (H929) and in assay [4] (MM.1S) were 1.68 and 1.64, respectively. Further, in assay [4] (Homo sapiens, MM1.S, BAY 60-7550 0.7375 μM, HE-NECA conc. (nM), read-out: Percent inhibition of ATP in MM.1S cells), the inhibition at 0.7375 µM was -9.4%. Also, the inhibition at 1.475 µM in assay [4] (Homo sapiens, MM1.S, BAY 60-7550 1.475 μM, HE-NECA conc. (nM), read-out: Percent inhibition of ATP in MM.1S cells) is -3.6%. Moreover, the inhibition at 2.95 µM in assay [4] (Homo sapiens, MM1.S, BAY 60-7550 2.95 μM, HE-NECA conc. (nM), read-out: Percent inhibition of ATP in MM.1S cells) worked out at 4%. Further, the inhibition at 5.9 µM in assay [4] (Homo sapiens, MM1.S, BAY 60-7550 5.9 μM, HE-NECA conc. (nM), read-out: Percent inhibition of ATP in MM.1S cells) stood at 6%. Also, the inhibition at 11.8 µM in assay [4] (Homo sapiens, MM1.S, BAY 60-7550 11.8 μM, HE-NECA conc. (nM), read-out: Percent inhibition of ATP in MM.1S cells) was determined as 13%. For the same compound, the “PDE inhibitors (specificity)” value in assay [5] is reported as “BAY 60-7550 (2)”.
With `O=C1CCc2cc(OCCCCc3nnnn3C3CCCCC3)ccc2N1` [Cilostazol, 6-[4-(1-cyclohexyl-1H-tetrazol-5-yl)butoxy]-3,4-dihydro-2(1H)-quinolinone], the synergy score is listed as 1.57 in assay [1] (setting [6]); 0.76 in assay [1] (setting [7]); 0.4 in assay [2] (setting [8]); 0.36 in assay [2] (setting [23]); 0.46 in assay [2] (setting [9]); 1.21 in assay [2] (setting [10]). Moreover, the synergy score in assay [2] (setting [11]) is reported as 1.12; in assay [2] (setting [12]) it was 0.6849; in assay [2] (setting [13]), 1.34; in assay [3] (setting [14]) it was 0.37; in assay [3] (setting [15]), 0.2486; in assay [3] (setting [16]), 0.12. Further, the synergy score in assay [4] (setting [17]) came out at 1.73; in assay [4] (setting [24]) it was 0.89; in assay [4] (setting [18]), 0.75; in assay [4] (setting [19]), 3.50; in assay [4] (setting [20]), 4.09; in assay [4] (setting [21]), 1.849. In assay [4] (setting [22]), the synergy score was found to be 1.85. In addition, in assay [5], the “PDE inhibitors (specificity)” value was “Cilostazol (3)”.
Turning to `CN(C(=O)CCCOc1ccc2[nH]c(=O)ccc2c1)C1CCCCC1` [Cilostamide, N-cyclohexyl-4-((1,2-dihydro-2-oxo-6-quinolinyl)oxy)-N-methyl-butanamide], the synergy score in assay [1] (in combination with adenosine receptor agonist HE-NECA, MM.1R) is recorded as 1.692; in assay [2] (setting [8]), 1.17; in assay [2] (setting [9]), 0.65; in assay [2] (setting [10]) it was 0.28; in assay [2] (setting [12]), 1.67; in assay [3] (setting [15]), 0.2381. In addition, the synergy score worked out at 1.1 in assay [4] (setting [18]), 0.49 in assay [4] (setting [19]) and 1.637 in assay [4] (setting [21]). Moreover, the “synergy (score), PDEi × HE-NECA” value in assay [2] (H929) stood at 0.56; in assay [4] (MM.1S), 1.02. Also, in assay [5], the “PDE inhibitors (specificity)” value is given as “Cilostamide (3)”.
